pIC50: −log10 of the molar value. Where two headings read alike, the source gives them in different places.
Experiments:
HUVECs [1] = test: Cell viability by CCK-8 assay; type: cell-based, human; conditions: for Cell viability compared with DMSO or (−)-JQ1: 8.5 μM, 96 h; for pIC50: Homo sapiens, HUVEC, read-out: 50% inhibition concentration of cell viability
Method: Cell viability after BET family member inhibitor treatment was evaluated by CCK-8 assay. HUVECs were seeded in 96-well plates at a density of 2,000 cells/well. Twenty-four hours later, the BET family member inhibitors, (−)-JQ1 (negative control drug) and DMSO (solvent group) were added at the indicated concentrations. […] The absorbance was evaluated at 450 nm to determine cell viability.
Furthermore, (−)-JQ1 was employed as a negative control, and DMSO was employed as a solvent control. […].

HUVECs [2] = test: Tube formation assay; conditions: 8.5 μM, 48 h pretreatment, then 5 h on Matrigel
Method: The circumference of the formed tubes was measured under an inverted light microscope.

[3] = system: chick embryo CAM vasculature; test: Chick embryo chorioallantoic membrane (CAM) anti-angiogenesis assay; type: in vivo; conditions: 48 h; for Inhibitory effect on microvessel density (MVD) / Inhibitory effect on MVD compared with (+)-JQ1 / Positive Ratio: 50 μg/ml; for Inhibitory effect on microvessel density (MVD) / Inhibition of MVD compared to DMSO / Inhibitory effect on MVD compared with (+)-JQ1 / Inhibitory efficacy on MVD compared with (+)-JQ1: CAM; for Inhibitory effect on microvessel density (MVD) / Inhibitory effect on MVD compared with (+)-JQ1: Figure 1C; for Inhibition of MVD compared to DMSO: 25, 50 and 100 μM, Figure 2F; for Anti-angiogenic activity, egg number 1: egg 1; for Anti-angiogenic activity, egg number 3: egg 3; for Anti-angiogenic activity, egg number 5: egg 5; for Inhibitory efficacy on MVD compared with (+)-JQ1: at each of 25, 50 and 100 μM; for Positive Ratio: embryos with ++ and +++ compared with total number of embryos; for Anti-angiogenic activity, egg number 2: egg 2; for Anti-angiogenic activity, egg number 4: egg 4
Method: Fertilized white leghorn chicken eggs were obtained from the Avian Farm of South China Agriculture University (Guangzhou, China) and the shells were cleaned with 1% geramine. […] A small window (10 × 10 mm^2) was cut above the air chamber of egg while the chick embryo was growing through the ninth day. BET family member inhibitors or DMSO (dissolved in 30 µl of phosphate-buffered saline [PBS, pH 7.4]) were placed directly onto the live chick embryo CAM through the window at the indicated concentrations and incubated for 48 h. Then, the eggshells were cut carefully along the axis of the median line, and the content was discarded. The CAM vasculature around the eggshell windows was observed and photographed under a stereomicroscope (Olympus SZX16). The microvessel density (MVD) was calculated as the percentage of blood vessel area in the total drug-treated area using the Image-Pro Plus 6.0 software (IPP 6.0, Media Cybernetics, Inc., Rockville MD, USA).
The effects of all these selected compounds on angiogenesis were first determined through use of the chick embryo CAM model. […] Each of the compounds (50 μg/ml) was added to the CAM of 9-day-old chick embryos for 48 h. The CAMs of chick embryos were photographed, and the inhibition ratio indicating angiogenesis was calculated and analyzed. […] An inhibitory effect observable but not obvious on the generation of third-grade vessels was indicated by “+”; an obvious medium-level inhibitory effect on secondary vessels was indicated by “++”; and an obvious potent inhibitory effect on primary blood vessels was indicated by “+++”.

[4] = system: c-jun and c-fos (AP-1) in HUVECs; test: Immunoblot of AP-1 components; type: cell-based, human; conditions: 48 h
Method: Then, the proteins of these cells were extracted using RIPA buffer and separated by 10% (w/v) sodium dodecyl sulphate-polyacrylamide gel electrophoresis (SDS-PAGE). The separated proteins were transferred onto a polyvinylidene fluoride (PVDF) membrane (Millipore, MA, USA) and blocked using 5% (w/v) non-fat powder milk at room temperature. Next, the membranes were incubated in the relative primary antibody and horseradish peroxidase (HRP)-conjugated secondary antibodies. Then, the Image Quant LAS 4000 system (GE Healthcare, Waukesha, WI, USA) was used for the direct visualization of the membranes. The protein bands were densitometrically quantified using Quantity-One protein analysis software (Bio-Rad Laboratories, Hercules, CA, USA). The relative expression of the proteins was normalized to the expression of glyceraldehyde-3-phosphate dehydrogenase (GAPDH).
[…]. […] […].

chick embryo YSM vessels = test: Chick embryo yolk sac membrane (YSM) anti-angiogenesis assay; type: in vivo; conditions: 100 μM, 24 h; for Blood vessel density and number of blood vessels compared with DMSO: YSM of 3-day-old chick embryos
Method: On the third day of incubation, the well-developed live chicken embryos were carefully transferred into sterilized dishes, and the chick embryo vessels were arranged to face upward. Color marked silastic rings were symmetrically placed onto the top of the vessel regions of the yolk sac membrane and incubated for 3 h in the incubator. Then, 100 μM BET family member inhibitors or DMSO (dissolved in 30 µl of PBS, pH 7.4) was added into the center of the rings and cultured in the incubator for 24 h. Images of the vessels in the silastic rings were captured at 0 and 24 h, respectively. The images were quantitatively analyzed by Image-Pro Plus 6.0, and then the number of blood vessels 24 h after drug treatment and the MVD at 0 and 24 h were quantified using IPP 6.0. The growth rate in the DMSO-treated silica gel circle was considered to be one.

BRD2 BD1 = biological target: T1, BRD2 BD1 (Homo sapiens, UniProt P25440); test: TR-FRET assay, BRD2 BD1; type: binding
T1 construct: purchased Cayman Chemical
Method: (§1) The specificity of the designed and synthesized compounds for BRD4 was also evaluated through comparison with those for BRD2.
(§2) As acetylated histone peptides are known substrates for bromodomain-containing proteins, we initially screened the complexes for their ability to modulate the protein–protein interaction between acetylated lysine and BET family members. […] Then, the IC50 of the compounds that prevent BRD4 (BD1 or BD2)/BRD2 (BD1 or BD2) and acetylated histone interactions was calculated by TR-FRET assay in vitro.

BRD2 BD2 = biological target: T2, BRD2 BD2 (Homo sapiens, UniProt P25440); test: TR-FRET assay, BRD2 BD2; type: binding
T2 construct: purchased Cayman Chemical
Method: as §1, §2

BRD4 BD2 = biological target: T3, BRD4 BD2 (Homo sapiens, UniProt O60885); test: TR-FRET assay, BRD4 BD2; type: binding
T3 construct: purchased Cayman Chemical
Method: as §1, §2

H3K122Ac = system: H3K122Ac; set-up: method as in Liu et al., 2020; conditions: ref Liu et al., 2020; cited from earlier work
BRD4 BD1 = biological target: T4, BRD4 BD1 (Homo sapiens, UniProt O60885); test: TR-FRET assay, BRD4 BD1; type: binding
T4 construct: purchased Cayman Chemical
Method: as §1, §2

[5] = 50 μg/ml on CAM of 9-day-old chick embryos

T1 sequence (P25440 74-180 limits assumed): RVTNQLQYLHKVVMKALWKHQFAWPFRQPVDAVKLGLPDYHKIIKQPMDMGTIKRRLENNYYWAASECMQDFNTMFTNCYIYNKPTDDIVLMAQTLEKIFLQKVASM
T2 sequence (P25440 344-453 limits assumed): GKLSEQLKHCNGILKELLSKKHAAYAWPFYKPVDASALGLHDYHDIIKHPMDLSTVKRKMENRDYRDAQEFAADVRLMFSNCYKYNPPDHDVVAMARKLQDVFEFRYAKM

Cc1sc2c(c1C)C(c1ccc(Cl)cc1)=N[C@@H](CC(=O)OC(C)(C)C)c1nnc(C)n1-2 [(+)-JQ1 (1), reference compound]
Cell viability compared with DMSO or (−)-JQ1 (HUVECs [1]; HUVECs): significantly suppressed cell viability | pIC50 (HUVECs [1]): 5.30 | Tube formation (tube circumference) compared with DMSO (HUVECs [2]): reduction in tube circumference | Inhibitory effect on microvessel density (MVD) [3]: most impressive inhibitory effect on MVD | Inhibition of MVD compared to DMSO [3]: significantly inhibited MVD in a concentration-dependent manner | Expression of c-jun compared with DMSO [4]: significantly inhibited the expression of c-jun | Phosphorylation of c-jun and c-fos compared with DMSO [4]: significantly inhibited | Blood vessel density and number of blood vessels compared with DMSO (chick embryo YSM vessels): significantly reduced

COc1cc(OC)c2c(=O)cc(-c3ccc(OCC(O)CN4CCCCC4)cc3)oc2c1 (stereo not drawn) [HJC5100(16)]
Anti-angiogenic activity, egg number 1 [3, 5]: + | Anti-angiogenic activity, egg number 3 [3, 5]: +

Cc1cc(/N=N/c2ccc(S(=O)(=O)Nc3ccccn3)cc2)c(N)cc1O [MS436 (3), reference compound]
pIC50 (BRD2 BD1): 6.10 | Anti-angiogenic activity, egg number 5 [3, 5]: + | Inhibitory effect on MVD compared with (+)-JQ1 [3]: better than that of the (+)-JQ1 positive control | Inhibitory effect on microvessel density (MVD) [3]: most impressive inhibitory effect on MVD | Inhibition of MVD compared to DMSO [3]: significantly inhibited MVD in a concentration-dependent manner | Inhibitory efficacy on MVD compared with (+)-JQ1 [3]: stronger inhibitory efficacy than (+)-JQ1 | pIC50 (BRD2 BD2): 6.07

CC(C)(C)c1cc(-c2nnc(-c3cc(F)c(F)c(F)c3)o2)no1 [ZL0164(4)]
Anti-angiogenic activity, egg number 5 [3, 5]: + | Positive Ratio [3]: 2/5

Cc1cc(N=Nc2ccc(S(=O)(=O)N3CCCC3)cc2)c(N)cc1O [ZL0452(5)]
Anti-angiogenic activity, egg number 2 [3, 5]: + | Anti-angiogenic activity, egg number 4 [3, 5]: + | Positive Ratio [3]: 1/4

Cc1cc(N=Nc2ccc(S(=O)(=O)NC3CCCC3)cc2)cc(C)c1O [ZL0453(6)]
Anti-angiogenic activity, egg number 1 [3, 5]: + | Anti-angiogenic activity, egg number 4 [3, 5]: + | Anti-angiogenic activity, egg number 5 [3, 5]: + | Positive Ratio [3]: 1/5

Cc1cc(/N=N/c2ccc(S(=O)(=O)NC3CCCC3)cc2)c(N)cc1O [ZL0454 (2)]
Anti-angiogenic activity, egg number 5 [3, 5]: + | Inhibitory effect on microvessel density (MVD) [3]: most impressive inhibitory effect on MVD | Inhibition of MVD compared to DMSO [3]: significantly inhibited MVD in a concentration-dependent manner | Inhibitory efficacy on MVD compared with (+)-JQ1 [3]: stronger inhibitory efficacy than (+)-JQ1

COc1cc(OC)c2c(=O)cc(-c3cc(C)c(OC[C@H](O)CN4CCCCC4)c(C)c3)oc2c1 [ZL0513 (7)]
Cell viability compared with DMSO or (−)-JQ1 (HUVECs [1]; HUVECs): significantly suppressed cell viability | pIC50 (HUVECs [1]; HUVECs, CCK-8, concentration range 0.3 to 15 μM): 5.07 | pIC50 (BRD4 BD2): 6.16 | Tube formation (tube circumference) compared with DMSO (HUVECs [2]): reduction in tube circumference | Effect on poly(I:C)-induced H3K122Ac (H3K122Ac): block poly(I:C)-induced H3K122Ac | pIC50 (BRD2 BD1): 6.10 | Anti-angiogenic activity, egg number 4 [3, 5]: + | Inhibitory effect on MVD compared with (+)-JQ1 [3]: better than that of the (+)-JQ1 positive control | Inhibitory effect on microvessel density (MVD) [3]: most impressive inhibitory effect on MVD | Positive Ratio [3]: 4/5 | Inhibition of MVD compared to DMSO [3]: significantly inhibited MVD in a concentration-dependent manner | Inhibitory efficacy on MVD compared with (+)-JQ1 [3]: stronger inhibitory efficacy than (+)-JQ1 | pIC50 (BRD2 BD2): 6.07 | Expression of c-jun compared with DMSO [4]: significantly inhibited the expression of c-jun | Phosphorylation of c-jun and c-fos compared with DMSO [4]: significantly inhibited | Inhibition efficacy on angiogenesis in YSM compared with (+)-JQ1 (chick embryo YSM vessels): significantly higher than that of (+)-JQ1 (1) treatment | Blood vessel density and number of blood vessels compared with DMSO (chick embryo YSM vessels): significantly reduced | Selectivity window to BRD4 over BRD2 (BRD4 BD1; BRD4 versus BRD2): 10 fold | pIC50 (BRD4 BD1; TR-FRET): 7.17

Cc1cc(N=Nc2ccc3c(c2)CCC(=O)N3)c(N)cc1O [ZL0518(8)]
Anti-angiogenic activity, egg number 6 ([3]; 50 μg/ml on CAM of 9-day-old chick embryos, egg 6): + | Positive Ratio [3]: 1/3

COc1cc(OC)c2c(=O)cc(-c3ccc(OCC4CO4)cc3)oc2c1 (stereo not drawn) [ZL0519 (9)]
Positive Ratio [3]: 3/4

COC(=O)C1CCCN1S(=O)(=O)c1ccc(NC(=O)c2ccc(C(F)(F)F)cc2)cc1 (stereo not drawn) [ZL0520(10)]
Anti-angiogenic activity, egg number 1 [3, 5]: + | Anti-angiogenic activity, egg number 4 [3, 5]: + | Positive Ratio [3]: 1/5

Cc1ccc(S(=O)(=O)OC[C@@H]2CCCN2S(=O)(=O)c2ccc(NC(=O)Nc3ccc(C(F)(F)F)cc3)cc2)cc1 [ZL0586(12)]
Anti-angiogenic activity, egg number 2 [3, 5]: + | Anti-angiogenic activity, egg number 3 [3, 5]: + | Anti-angiogenic activity, egg number 5 [3, 5]: + | Positive Ratio [3]: 2/5

O=C(Nc1ccc(C(F)(F)F)cc1)N1CCN(c2ccc(O)cc2)CC1 [ZL0589(14)]
Anti-angiogenic activity, egg number 5 [3, 5]: + | Positive Ratio [3]: 2/5

N#CC(=NNc1ccc2c(c1)CCC(=O)N2)C(=O)c1ccc(OC(F)(F)F)cc1 [ZL0593(15)]
Anti-angiogenic activity, egg number 3 [3, 5]: + | Positive Ratio [3]: 3/5
